Experimental findings from article PMC6862250, “Lipophilicity Determination of Quaternary (Fluoro)Quinolones by Chromatographic and Theoretical Approaches” (International Journal of Molecular Sciences, 2019) are described below.

Structures are written as SMILES.

What all share (assay type): physicochemical
The nature of data set [1]: RP-TLC lipophilicity, silica gel C18, methanol-water. The conditions noted are these: for C 0: RP-TLC silica gel C18, C0 = −RM^0/b; for PC1: RP-TLC silica gel C18, first principal component of RM values, contains 86.92% of information; for mRM: RP-TLC silica gel C18, mean value of RM; for R M ^0: RP-TLC silica gel C18, methanol-water 40 to 70% (v/v), intercept of Soczewiński–Wachtmeister equation; for b: RP-TLC silica gel C18, slope of Soczewiński–Wachtmeister equation. As for the experimental part:
(§1) The ready-to-use TLC glass plates covered by octadecyl(C18)- and octyl(C8)-modified TLC silica layers were purchased from Merck (Darmstadt, Germany). Stock solutions (5 µL) of the analytes were spotted manually on the plates with the use of a micropipette from Brand (Wertheim, Germany). The mobile phases were prepared by mixing appropriate volumes of pure organic solvents and water (in step gradient by 10% (v/v)), in the following proportions: (a) methanol–water ranging from 30 to 70% (v/v), in the case of C8-bonded silica gel stationary phase; and (b) methanol–water ranging from 40 to 70% (v/v), in the case of C18-bonded silica gel stationary phase.
(§2) Before analysis, the chromatographic chamber (Twin Trough Chambers from CAMAG Philadelphia, USA) was saturated for 20 min. All TLC experiments were performed at room temperature (22 ± 2 °C). Chromatograms were developed using the ascending technique to a distance of 8 cm. The investigated substances were visualized under UV light at λ = 366 nm by CAMAG UV Lamp 4 and the Viewing Box 4 (Philadelphia, USA). […] The obtained retardation factors (RF) were collected in the Supplementary data sheets. The retention parameter, RM, was calculated for each compound according to the Bate-Smith and Westall formula: (7) RM=log(1/RF−1) and listed in Table S2. Next, the Soczewiński–Wachtmeister’s equation: RM = RM^0 + bC(8) was used in order to determine the basic lipophilic RP-TLC parameter RM^0 as well as commonly used hydrophobic constants m. Soczewiński–Wachtmeister’s equation presented a linear relationship between concentration of the organic solvent in mobile phase (C) and RM value. Moreover, mean value of RM was used for lipophilicity assessments.
(§3) Furthermore, C0 RP-TLC lipophilicity parameter, introduced by Bieganowska, has been calculated according to the formula:(9) C0=−RM^0/b.
(§4) The C0 parameter corresponds to the parameter φ0, previously proposed for the HPLC. This parameter relates to the concentration of the organic component in the mobile phase for which the distribution of the analyzed substance between the mobile and stationary phase is equal (1:1).
(§5) Also, the principal component analysis (PCA) was applied in order to extract information regarding the lipophilicity of solutes and formulate them as the first principal component (PC1). Calculation data matrixes included RM values of solutes for each modifier concentration in the mobile phase.

A short description of data set [2]: RP-TLC lipophilicity, silica gel C8, methanol-water. The conditions noted are these: for C 0: RP-TLC silica gel C8, C0 = −RM^0/b; for PC1: RP-TLC silica gel C8, first principal component of RM values, contains 83.57% of information; for mRM: RP-TLC silica gel C8, mean value of RM; for R M ^0: RP-TLC silica gel C8, methanol-water 30 to 70% (v/v), intercept of Soczewiński–Wachtmeister equation; for b: RP-TLC silica gel C8, slope of Soczewiński–Wachtmeister equation. The method, then:
as §1, §2, §3, §4, §5

Data set [3] is described as follows: MEKC lipophilicity (SDS micelles, pH 7.4). Conditions: 50 mM SDS, HEPES/TRIS buffer pH 7.4, 25 °C. The method, then: All MEKC experiments were carried out with a P/ACE MDQ plus system (Sciex, Framingham, MA, USA) equipped with photodiode array detector (PDA) and controlled by 32 Karat software (version 10.2). The uncoated fused silica capillaries (50 µm i.d., Polymicro Technologies, West Yorkshire, UK) of 60 cm total length and 50.2 cm effective length were used. Prior to analysis, the capillary was rinsed with 0.1 M NaOH for 30 min, ultrapure water for 10 min, and background electrolyte (BGE) for 30 min. After each analysis, the capillary was conditioned with BGE for 2 min. The applied pressure for all rinsing operations was 345 kPa. The analytes were dissolved in BGE at concentration of 100 µg/mL with addition of quinine (micelles marker). As electroosmotic flow (EOF) marker, DMSO was used. The samples were hydrodynamically injected at 35 kPa for 5 s. The separations were performed by applying voltage of 20 kV with positive polarity and constant temperatures at 25 ± 0.1 °C. The BGE consisted of aqueous solution of 50 mM SDS and 120 mM HEPES /100 mM TRIS buffer of pH 7.4. The BGE was prepared each working day by dilution of stock solution. Detection was carried out at 200 and 280 nm with 8 Hz probing frequency. The logarithm of retention factor logk was calculated according to the equation introduced by Terabe and co-workers:(10) logkMEKC=log(tR−tEOF/tEOF(1−tR/tMC)) The established logk parameters are summarized in Table 2.

With `CCn1cc(C(=O)O)c(=O)c2cc(F)c(N3CC[N+]4(CC3)CN3C(=N4)C(C(=O)O)=Cc4ccccc43)cc21.[Cl-]` [Compound 1], in data set [1], the “C 0” value turned out to be 1.21, the PC1 stood at 0.72, the mRM is 0.96 and the “R M ^0” value turned out to be 1.65. In data set [1], the b is on record as −1.36. Besides, in data set [2], the “C 0” value is reported as 1.04, the PC1 is given as −2.23, the mRM is 1.03 and the “R M ^0” value stood at 1.99. Moreover, in data set [2], the b is recorded as −1.92. Moreover, the logk in data set [3] is −0.104.
On to `COc1c(N2CC[N+]3(CN4C(=N3)C(C(=O)O)=Cc3ccccc34)C(C)C2)c(F)cc2c(=O)c(C(=O)O)cn(C3CC3)c12.[Cl-]` (stereo not drawn) [Compound 2], for which, in data set [1], the “C 0” value was 0.84, the PC1 was 0.81, the mRM is 0.95 and the “R M ^0” value is reported as 2.78. The compound further yielded a b in data set [1] of −3.31. Moreover, in data set [2], the “C 0” value stood at 0.89, the PC1 is given as −2.22, the mRM is 1.01 and the “R M ^0” value was 2.31. This compound also returned a b in data set [2] of −2.61. Moreover, the logk in data set [3] was −0.125.
As for `CC1CN(c2c(F)c(N)c3c(=O)c(C(=O)O)cn(C4CC4)c3c2F)CC(C)[N+]12CN1C(=N2)C(C(=O)O)=Cc2ccccc21.[Cl-]` (stereo not drawn) [Compound 3], in data set [1], the “C 0” value worked out at 0.88, the PC1 turned out to be 0.34, the mRM was determined as 1.02 and the “R M ^0” value is reported as 2.75. This compound also returned a b in data set [1] of −3.13. Moreover, in data set [2], the “C 0” value was determined as 0.86, the PC1 was −3.48, the mRM is reported as 1.15 and the “R M ^0” value is 2.74. This compound came in with a b in data set [2] of −3.17. For the same compound, in data set [3], the logk is listed as −0.070.
Consider `CC1=CC(C)=C(C(=O)O)C2=N[N+]3(CCN(c4cc5c(cc4F)c(=O)c(C(=O)O)cn5C4CC4)CC3)CN12.[Cl-]` [Compound 4], for which, in data set [1], the “C 0” value is recorded as 0.94, the PC1 was determined as 2.36, the mRM was 0.72 and the “R M ^0” value was 1.74. For the same compound, in data set [1], the b was −1.85. In data set [2], the “C 0” value was determined as 0.94, the PC1 is −0.58, the mRM was found to be 0.84 and the “R M ^0” value is reported as 1.79. Moreover, in data set [2], the b is on record as −1.90. Moreover, the logk in data set [3] was −0.321.
For `CCn1cc(C(=O)O)c(=O)c2cc(F)c(N3CC[N+]4(CN5C(=N4)C(C(=O)O)=Cc4ccccc45)C(C)C3)c(F)c21.[Cl-]` (stereo not drawn) [Compound 5], in data set [1], the “C 0” value is on record as 0.93, the PC1 was 0.88, the mRM is on record as 0.94 and the “R M ^0” value was determined as 2.29. Besides, the b in data set [1] is on record as −2.45. Moreover, in data set [2], the “C 0” value came out at 1.04, the PC1 was −1.69, the mRM is reported as 0.98 and the “R M ^0” value was 1.90. The same compound registered a b in data set [2] of −1.83. Further, in data set [3], the logk is given as −0.265.
In the case of `CCn1cc(C(=O)O)c(=O)c2cnc(N3CC[N+]4(CC3)CN3C(=N4)C(C(=O)O)=Cc4ccccc43)nc21.[Cl-]` [Compound 6], in data set [1], the “C 0” value is recorded as 1.23, the PC1 was found to be 0.53, the mRM amounted to 0.98 and the “R M ^0” value came to 1.78. For the same compound, the b in data set [1] was −1.45. In data set [2], the “C 0” value turned out to be 2.35, the PC1 is −1.73, the mRM was determined as 1.04 and the “R M ^0” value was found to be 1.32. Also, the b in data set [2] is −0.56.
Take `CCn1cc(C(=O)O)c(=O)c2cc(F)c(N3CC[N+]4(CC3)CN3C(=N4)C(C(=O)O)=Cc4ccccc43)nc21.[Cl-]` [Compound 7]: in data set [1], the “C 0” value was 1.17, the PC1 was 0.48, the mRM came to 0.99 and the “R M ^0” value is given as 1.87. In data set [1], this compound yielded a b of −1.60. Moreover, in data set [2], the “C 0” value was determined as 1.23, the PC1 was −2.01, the mRM came to 1.05 and the “R M ^0” value is 1.76. In addition, the b in data set [2] is on record as −1.43. Also, the logk in data set [3] was −0.239.
Take `O=C(O)C1=Cc2ccccc2N2C[N+]3(CCN(c4cc5c(cc4F)c(=O)c(C(=O)O)cn5C4CC4)CC3)N=C12.[Cl-]` [Compound 8]: in data set [1], the “C 0” value stood at 1.07, the PC1 was 1.18, the mRM is reported as 0.89 and the “R M ^0” value is reported as 1.83. This compound also returned a b in data set [1] of −1.71. For the same compound, in data set [2], the “C 0” value amounted to 1.09, the PC1 is −1.26, the mRM is listed as 0.93 and the “R M ^0” value is 1.71. In addition, the b in data set [2] is on record as −1.56. Further, the logk in data set [3] is listed as −0.153.
Regarding `CCn1cc(C(=O)O)c(=O)c2cc(F)c(N3CC[N+]4(CN5C(C)=CC(C)=C(C(=O)O)C5=N4)C(C)C3)c(F)c21.[Cl-]` (stereo not drawn) [Compound 9], in data set [1], the “C 0” value came out at 0.98, the PC1 came out at 1.75, the mRM is listed as 0.81 and the “R M ^0” value is 1.86. For the same compound, the b in data set [1] was −1.91. Besides, in data set [2], the “C 0” value was found to be 0.97, the PC1 is listed as −0.11, the mRM is 0.79 and the “R M ^0” value was determined as 1.62. Moreover, in data set [2], the b is given as −1.66. This compound also yielded a logk in data set [3] of −0.479.
For the compound `CCn1cc(C(=O)O)c(=O)c2cnc(N3CC[N+]4(CC3)CN3C(C)=CC(C)=C(C(=O)O)C3=N4)nc21.[Cl-]` [Compound 10], in data set [1], the “C 0” value is 1.22, the PC1 is listed as 2.53, the mRM came to 0.70 and the “R M ^0” value was 1.27. Further, the b in data set [1] is on record as −1.04. Further, in data set [2], the “C 0” value amounted to 1.28, the PC1 is reported as 0.79, the mRM was determined as 0.71 and the “R M ^0” value is listed as 1.16. Moreover, the b in data set [2] was −0.91.
In the case of `CCn1cc(C(=O)O)c(=O)c2cc(F)c(N3CC[N+]4(CC3)CN3C(C)=CC(C)=C(C(=O)O)C3=N4)nc21.[Cl-]` [Compound 11], in data set [1], the “C 0” value worked out at 1.08, the PC1 is on record as 1.51, the mRM came to 0.84 and the “R M ^0” value stood at 1.72. In addition, the b in data set [1] is reported as −1.59. In addition, in data set [2], the “C 0” value stood at 1.06, the PC1 is −0.54, the mRM came to 0.84 and the “R M ^0” value is reported as 1.59. The same compound registered a b in data set [2] of −1.50. Also, the logk in data set [3] is listed as −0.398.
For `O=C(O)c1cn(C2CC2)c2cc(N3CCNCC3)c(F)cc2c1=O` [Compound 22, ciprofloxacin, reference compound], in data set [1], the “C 0” value stood at 1.30, the PC1 was −3.88, the mRM is on record as 1.62 and the “R M ^0” value worked out at 2.79. In data set [1], this compound had a b of −2.15. In data set [2], the “C 0” value is 1.61, the PC1 is given as −5.04, the mRM was 1.41 and the “R M ^0” value was found to be 2.04. In data set [2], this compound had a b of −1.27.
